Measurements taken from paper PMC13197777, “Distinct 2-phenylimidazo[1,2-a]pyridine derivatives that inhibit breast cancer cell proliferation identified as AHR ligands” (iScience, 2026).

Tests used:
ERα full-length = biological target: T1, ERα full-length (Homo sapiens, UniProt P03372); experiment: PolarScreen ERα Competitor Assay (fluorescence polarization); assay type: binding
T1 construct: 34 nM ERα full-length and 1.4 nM Fluormone EL Red were incubated; purchased ThermoFisher A15884
T1 sequence (P03372 1-595): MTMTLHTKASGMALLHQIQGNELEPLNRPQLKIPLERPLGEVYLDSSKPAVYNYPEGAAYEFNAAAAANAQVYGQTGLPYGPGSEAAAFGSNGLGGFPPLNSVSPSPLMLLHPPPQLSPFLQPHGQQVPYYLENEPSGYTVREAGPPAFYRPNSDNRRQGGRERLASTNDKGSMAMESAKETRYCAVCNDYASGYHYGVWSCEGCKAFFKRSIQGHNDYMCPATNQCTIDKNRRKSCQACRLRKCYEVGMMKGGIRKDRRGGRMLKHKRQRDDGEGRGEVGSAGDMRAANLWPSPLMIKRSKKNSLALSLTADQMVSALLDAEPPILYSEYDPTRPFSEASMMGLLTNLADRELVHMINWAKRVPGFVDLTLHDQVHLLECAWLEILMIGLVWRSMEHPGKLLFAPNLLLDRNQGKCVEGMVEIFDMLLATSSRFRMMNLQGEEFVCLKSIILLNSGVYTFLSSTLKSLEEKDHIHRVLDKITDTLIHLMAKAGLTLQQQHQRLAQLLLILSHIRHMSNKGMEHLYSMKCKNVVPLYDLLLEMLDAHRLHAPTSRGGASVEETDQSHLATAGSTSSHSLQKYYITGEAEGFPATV
Description: The PolarScreen Estrogen Receptor-Alpha Competitor Assay, Red (ThermoFisher, A15884) was used to determine if the X compounds bind to ERα. The assay was performed according to the manufacturer’s protocol.

AHR-Hsp90-XAP2 = biological target: T2, AHR-Hsp90-XAP2 (Homo sapiens, UniProt P35869); experiment: Thermal stability measurements (nano-DSF); assay type: binding; details: 2.5 μM protein, 12.5 μM compound
T2 construct: made in house
T2 sequence (P08238 whole entry partner, one chain of several): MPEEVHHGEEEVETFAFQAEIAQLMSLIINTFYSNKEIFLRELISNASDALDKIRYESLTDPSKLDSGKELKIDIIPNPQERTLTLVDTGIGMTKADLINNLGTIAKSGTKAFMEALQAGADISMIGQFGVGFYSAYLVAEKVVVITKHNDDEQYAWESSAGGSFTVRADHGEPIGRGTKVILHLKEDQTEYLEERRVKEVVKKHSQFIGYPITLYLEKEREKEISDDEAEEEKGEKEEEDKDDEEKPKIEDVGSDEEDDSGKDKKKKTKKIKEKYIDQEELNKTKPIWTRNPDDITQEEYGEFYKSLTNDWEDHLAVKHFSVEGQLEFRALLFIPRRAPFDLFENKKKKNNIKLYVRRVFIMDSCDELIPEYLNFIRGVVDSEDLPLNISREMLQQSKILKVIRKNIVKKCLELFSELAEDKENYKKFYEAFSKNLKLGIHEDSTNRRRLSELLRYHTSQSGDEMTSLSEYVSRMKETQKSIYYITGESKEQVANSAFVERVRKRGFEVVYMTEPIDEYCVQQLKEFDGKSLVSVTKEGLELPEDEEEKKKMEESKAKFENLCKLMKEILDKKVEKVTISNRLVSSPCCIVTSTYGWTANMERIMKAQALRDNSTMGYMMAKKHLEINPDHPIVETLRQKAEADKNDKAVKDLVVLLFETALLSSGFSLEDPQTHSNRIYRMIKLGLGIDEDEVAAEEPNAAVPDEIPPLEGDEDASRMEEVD
T2 sequence (O00170 whole entry partner, one chain of several): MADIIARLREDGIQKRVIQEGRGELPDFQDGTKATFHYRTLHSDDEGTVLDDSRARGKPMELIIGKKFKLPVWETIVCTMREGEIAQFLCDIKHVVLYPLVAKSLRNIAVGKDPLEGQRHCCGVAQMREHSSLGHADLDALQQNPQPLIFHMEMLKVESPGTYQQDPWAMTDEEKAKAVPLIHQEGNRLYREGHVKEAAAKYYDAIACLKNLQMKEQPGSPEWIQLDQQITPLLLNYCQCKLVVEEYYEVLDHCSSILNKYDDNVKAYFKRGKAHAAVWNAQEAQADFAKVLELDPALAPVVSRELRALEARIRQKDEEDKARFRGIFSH
Description: Thermal denaturation experiments of AHR complexes in the presence of compounds were performed using a Tycho NT.6 instrument (NanoTemper Technologies). Protein samples were prepared as previously described[67] and subsequently diluted in the buffer containing 20 mM Bis-Tris–HCl pH 7.0, 50 mM NaCl, 10 mM KCl, 10 mM MgCl2, 20 mM Na2MoO4 and 2 mM β-mercaptoethanol to a final protein concentration of 2.5 μM. Compound stock solutions were prepared at 20 mM in DMSO and added to the protein samples to yield a final concentration of 12.5 μM. For control measurements, DMSO was added to a final concentration of 5% (v/v). Following ligand or DMSO addition, the samples were gently mixed and incubated at room temperature for 10 min to allow equilibration. Thermal denaturation profiles were acquired over a temperature range of 35°C–95°C, with a heating rate of 1 °C per min. Fluorescence was monitored at emission wavelengths of 330 nm and 350 nm, and the data were analyzed as the first derivative of the fluorescence ratio (F330/F350) as a function of temperature. All experiments were performed in triplicate, and data were analyzed using the Tycho NT.6 software (NanoTemper Technologies) according to the manufacturer’s recommendations.

ERα in MCF-7 cells = experiment: Immunoblot of ERα in MCF-7 cells; assay type: cell-based, human; details: MCF-7, 48 h, increasing concentrations up to 1 μM
Description: To determine the relative expression of proteins by Western blotting, cells were first washed with ice-cold phosphate buffered saline (PBS). Subsequently, they were lysed in ice-cold NP40 lysis buffer (1%NP-40, 50 mM Tris-HCl, pH 8.0, 150 mM NaCl, 5 mM Ethylenediaminetetraacetic acid [EDTA], 1 mM PMSF) on ice. DNA was degraded by sonification (five pulses at 50 amplitudes). Protein concentration was determined, and equal amounts of protein were separated on a 9% SDS-PAGE gel. The proteins were transferred onto nitrocellulose membrane by a standard Western blotting protocol and the membranes were incubated with the following antibodies: ERα (Santa Cruz Biotechnology, sc-8002, RRID: AB_627558) and PCNA (Santa Cruz Biotechnology, sc-56, RRID: AB_628110), followed by incubation with HRP labeled Goat anti-mouse Immunoglobulins (DAKO, P0447, RRID: AB_2617137).

[1] = system: ER+ MCF-7, ZR75–1, and T47D breast cancer cells; set-up: method as in PMID 37520743; details: previously identified ref 17; cited from earlier work
AHR = biological target: T3, AHR (Homo sapiens, UniProt P35869); experiment: AHR luciferase reporter assay in HAHLH cells; assay type: cell-based; details: 8 h, % of maximal luciferase activity with dioxin 10 nM, read-out: EC50 AHR transactivation
T3 construct: endogenous in cells; host or cells: HAHLH (HeLa with XRE-luciferase reporter)
T3 sequence (P35869 11-848): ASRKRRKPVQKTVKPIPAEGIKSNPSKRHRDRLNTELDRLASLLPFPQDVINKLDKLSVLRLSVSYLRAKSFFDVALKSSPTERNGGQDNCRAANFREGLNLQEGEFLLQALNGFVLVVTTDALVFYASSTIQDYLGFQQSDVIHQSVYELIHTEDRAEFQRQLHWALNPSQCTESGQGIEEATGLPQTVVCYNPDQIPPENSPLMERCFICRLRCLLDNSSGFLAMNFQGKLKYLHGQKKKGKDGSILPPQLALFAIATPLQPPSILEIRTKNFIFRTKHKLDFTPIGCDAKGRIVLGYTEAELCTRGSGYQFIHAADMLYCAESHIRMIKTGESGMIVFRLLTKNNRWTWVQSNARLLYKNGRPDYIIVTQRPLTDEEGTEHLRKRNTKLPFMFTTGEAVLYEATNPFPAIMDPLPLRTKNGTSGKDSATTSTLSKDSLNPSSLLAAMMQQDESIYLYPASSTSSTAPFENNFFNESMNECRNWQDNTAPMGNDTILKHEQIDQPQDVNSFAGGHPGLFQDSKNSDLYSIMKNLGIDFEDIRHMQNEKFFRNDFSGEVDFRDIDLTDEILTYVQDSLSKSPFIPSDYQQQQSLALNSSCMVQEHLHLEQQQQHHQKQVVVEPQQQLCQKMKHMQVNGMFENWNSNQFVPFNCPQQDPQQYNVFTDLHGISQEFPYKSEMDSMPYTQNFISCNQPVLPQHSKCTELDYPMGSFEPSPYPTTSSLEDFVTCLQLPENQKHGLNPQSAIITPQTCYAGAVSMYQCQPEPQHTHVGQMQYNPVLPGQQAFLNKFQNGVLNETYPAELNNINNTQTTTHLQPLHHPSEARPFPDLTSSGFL
From the text: To characterize the chemical induced AHR activity, we used the already established HAHLH reporter cell lines obtained by stably expression of HeLa cells with the dioxin-responsive gene XRE(TnGCGTG)3-tata-luciferase-Luc-hygromycin plasmid.[29] The reporter HELN hERα cell line was obtained by transfecting human HeLa cells with the ERE-responsive gene ERE-βGlobin-luciferase-Luc-neomycin and the pSG5-hERα-puromycin plasmids as previously described.[59] To determine the action of the chemical on AHR and hERα activity, cells were seeded at a density of 50,000 cells per well in 96-well white opaque tissue culture plates (Greiner CellStar) in 150 μL of Dulbecco’s Modified Eagle Medium: Nutrient Mixture F-12 (DMEM/F- 12) without phenol red and 1 g/L glucose and supplemented with 5% stripped fetal bovine serum, 100 units/mL of penicillin, 100 μg/mL of streptomycin (test medium). Twenty-four hours later, chemicals to be tested were added at 4x concentration in culture medium, and cells were incubated at 37 °C for 8 h (HAhLH cells) or 24 h (HELN hERα cells). At the end of the incubation period, culture medium was replaced with test medium containing 0.3 mM luciferin and luciferase activity was measured for 2 s in intact living cells using a MicroBeta Wallac luminometer (PerkinElmer). Tests were performed in quadruplicate at 4x concentration in the same medium in at least 4 independent experiments. Results were expressed as % of the maximal luciferase activity. […] Effective concentration (ECs) for a given compound, EC50 is defined as the concentration inducing 50% of its maximal effect. The EC50 values were calculated including the adjustment for the basal activity of the cell line.

[2] = Parallel artificial membrane permeability assay (PAMPA); details: for Conc. acceptor well / Conc. donor well: PAMPA after incubation
Description: The plates were stored at – 20 °C until ready for use. Prior to use, the plate was prewarmed at room temperature for 30 min. Donor- and acceptor solutions were prepared as 12 mM phosphate buffered saline with a pH of 6.5 (donor) respectively 7.4 (acceptor). […] Then, 300 μL of each donor solution were filled into the donor (bottom) wells of the PAMPA plate. 200 μL of the acceptor medium were loaded into each well of the pre-coated receiver plate (top). […] The compound concentrations in the donor- and acceptor wells were then determined using a Jasco 2 HPLC system equipped with a ReproSil-Pur 120 ODS-3 column (5 μm, 50 × 2 mm) and UV detection. […] The injection volume was 40 μL and the flow rate 1 mL/min. […] For X15695, two calibration curves were prepared in the presence (donor well) and absence (acceptor well) of 10% ethanol. (Figure S6). The experiments were performed in triplicates.
Where cA(t) is the compound concentration in the acceptor well in μmol⋅l^−1, cD(t) is the compound concentration in the donor well in […], VA and VD is the volume of the acceptor respectively donor solution per well in mL, A is the membrane area in cm^2 and t the incubation time in seconds (Table S3).

MCF-7 cells = experiment: Clonogenic assay in MCF-7 cells with AHR antagonist CH223191; assay type: cell-based, human; details: MCF-7, 10 nM compound, 1 μM CH223191, 14 days
Description: Cells were seeded at a density of 1–2×10^3 cells/well in a 6-well plate and treated with increasing concentrations of the X compounds for 14–21 days. Medium and compounds were renewed every 7 days. The experiments were terminated by fixing the cells with methanol and the colonies formed were visualized after staining with 0.5% crystal violet (w/v) in 20% methanol (v/v). Plates were photographed and the area covered by the colonies was calculated using the ColonyArea Plugin for Fiji (RRID:SCR_003070).[20]

[3] = system: AHR target genes CYP1A1, CYP1B1, ALDH3A1; details: human, 16 h, 1 µM

Structure (SMILES): Fc1ccccc1-c1cn2ccccc2n1 [X19712]
- displacement of the Fluormone tracer from ERα (ERα full-length): failed to displace the Fluormone
- thermal stabilization of AHR (nano-DSF) (AHR-Hsp90-XAP2): promote AHR destabilization
- ERα destabilization (immunoblot) (ERα in MCF-7 cells): no significant ERα destabilization
- Inhibition of Proliferation [1]: No

Structure (SMILES): Cc1cccn2cc(-c3ccccc3F)nc12 [X19718]
- displacement of the Fluormone tracer from ERα (ERα full-length): failed to displace the Fluormone
- thermal stabilization of AHR (nano-DSF) (AHR-Hsp90-XAP2): promote AHR destabilization
- ERα destabilization (immunoblot) (ERα in MCF-7 cells): no significant ERα destabilization
- Inhibition of Proliferation [1]: No

Structure (SMILES): Clc1cc2c(cc1Cl)Oc1cc(Cl)c(Cl)cc1O2 [Dioxin, reference compound]
- EC50 (AHR): 1.24 nM

Structure (SMILES): Cn1c(=O)c2c(ncn2C)n(C)c1=O [Caffeine]
- Papp at 5 h, 200 µM ([2]; PAMPA): 10.7 ×10⁻⁶ cm/s
- Conc. acceptor well ([2]; replica 1): 43.91 µM
- Conc. donor well ([2]; replica 1): 160.76 µM
- Conc. acceptor well ([2]; replica 2): 41.44 µM
- Conc. donor well ([2]; replica 2): 161.45 µM
- Conc. acceptor well ([2]; replica 3): 46.38 µM
- Conc. donor well ([2]; replica 3): 165.23 µM

Structure (SMILES): O=C1NC(=O)C(c2ccccc2)(c2ccccc2)N1 [Phenytoin]
- Conc. acceptor well ([2]; replica 1): 7.15 µM
- Conc. donor well ([2]; replica 1): 112.02 µM
- Conc. acceptor well ([2]; replica 2): 10.14 µM
- Conc. donor well ([2]; replica 2): 117.35 µM
- Conc. acceptor well ([2]; replica 3): 14.06 µM
- Conc. donor well ([2]; replica 3): 120.53 µM

Structure (SMILES): Cc1cccn2cc(-c3ccc(F)cc3)nc12 [X19167]
- displacement of the Fluormone tracer from ERα (ERα full-length): failed to displace the Fluormone
- thermal stabilization of AHR (nano-DSF) (AHR-Hsp90-XAP2): promote AHR destabilization
- EC50 (AHR): 173 nM
- ERα destabilization (immunoblot) (ERα in MCF-7 cells): no significant ERα destabilization
- Inhibition of Proliferation [1]: No

Structure (SMILES): Fc1ccc(-c2cn3cc(C(F)(F)F)ccc3n2)cc1 [X20046]
- inhibition of colony expansion in the presence of AHR antagonist CH223191 (MCF-7 cells): clearly abrogated by the AHR antagonist CH223191
- ERα destabilization (immunoblot) (ERα in MCF-7 cells): most proficient in destabilizing ERα
- expression of AHR target genes (RT-PCR) [3]: enhanced the transcriptional activity of the AHR target genes in both MCF-7 and T47D cells
- Inhibition of Proliferation [1]: Yes
